Reference: a compilation of properties of binary mixtures (doi:10.1021/jp2012254)

Assay: xn = mol fraction of the nth substance listed
Conditions: 298 K, 101 kPa

CCCC[n+]1ccn(C)c1.O=S(=O)([N-]S(=O)(=O)C(F)(F)F)C(F)(F)F + CCCCO
Conditions	electrical conductivity [S/m]	viscosity [mPa·s]
x2 = 0.0121	0.408	–
x2 = 0.1048	–	41.5
x2 = 0.1229	0.477	–
x2 = 0.3394	0.578	–
x2 = 0.3437	–	22.9
x2 = 0.4228	0.633	–
x2 = 0.4428	0.667	–
x2 = 0.5066	–	15.2
x2 = 0.518	0.677	–
x2 = 0.545	0.677	–
x2 = 0.5556	0.676	–
x2 = 0.5882	0.675	–
x2 = 0.608	0.674	–
x2 = 0.6656	0.66	–
x2 = 0.6796	0.67	–
x2 = 0.7193	–	8.92
x2 = 0.7316	0.59	8.55
x2 = 0.7458	0.57	–
x2 = 0.7645	0.56	–
x2 = 0.7951	0.507	–
x2 = 0.8487	0.401	–
x2 = 0.8618	–	5.83
x2 = 0.878	0.349	–

CCCC[n+]1ccn(C)c1.O=S(=O)([N-]S(=O)(=O)C(F)(F)F)C(F)(F)F + CO
Conditions	electrical conductivity [S/m]	viscosity [mPa·s]
x1 = 0.0104	0.94	–
x1 = 0.0197	–	0.71
x2 = 0	–	50.4
x2 = 0.0302	0.524	46.2
x2 = 0.0942	0.509	–
x2 = 0.1177	0.549	–
x2 = 0.1279	0.509	–
x2 = 0.1577	–	35.8
x2 = 0.16	–	34.2
x2 = 0.1706	0.514	–
x2 = 0.2298	–	28.8
x2 = 0.3938	0.651	–
x2 = 0.432	0.99	–
x2 = 0.5555	1.18	–
x2 = 0.6132	1.74	–
x2 = 0.6242	–	8.27
x2 = 0.662	1.89	–
x2 = 0.6647	1.96	–
x2 = 0.7009	2.12	–
x2 = 0.7546	2.28	–
x2 = 0.7799	2.29	–
x2 = 0.7983	2.45	–
x2 = 0.8188	2.49	–
x2 = 0.8248	–	2.61
x2 = 0.8272	2.51	–
x2 = 0.8805	2.58	–
x2 = 0.8953	–	1.47
x2 = 0.9305	2.42	–
x2 = 0.9462	2.23	–
x2 = 0.9721	1.73	–

CCCC[n+]1ccn(C)c1.O=S(=O)([N-]S(=O)(=O)C(F)(F)F)C(F)(F)F + O
Conditions	electrical conductivity [S/m]	viscosity [mPa·s]
x2 = 0.0012	0.416	–
x2 = 0.0014	0.412	–
x2 = 0.0053	0.412	–
x2 = 0.0135	0.431	–
x2 = 0.0273	0.444	–
x2 = 0.0442	–	46.9
x2 = 0.0533	0.444	–
x2 = 0.0737	0.466	–
x2 = 0.0832	–	42.8
x2 = 0.1171	0.494	–
x2 = 0.1253	–	37.2
x2 = 0.1429	–	35.4
x2 = 0.1439	0.52	–
x2 = 0.1721	–	36
x2 = 0.1733	0.549	–
x2 = 0.2119	0.583	–
x2 = 0.2222	–	33.1
x2 = 0.2436	0.61	–
x2 = 0.2523	0.599	–
x2 = 0.2556	–	31
x2 = 0.2559	0.614	–

CO + CCCC[n+]1ccn(C)c1.O=S(=O)([N-]S(=O)(=O)C(F)(F)F)C(F)(F)F
Conditions	viscosity [mPa·s]
x1 = 1	0.544

CC#N + CCCC[n+]1ccn(C)c1.O=S(=O)([N-]S(=O)(=O)C(F)(F)F)C(F)(F)F
Conditions	viscosity [mPa·s]
x1 = 1	0.37

CCCC[n+]1ccn(C)c1.O=S(=O)([N-]S(=O)(=O)C(F)(F)F)C(F)(F)F + CC(C)(C)O
Conditions	viscosity [mPa·s]
x2 = 0	50.4

ClCCl + CCCC[n+]1ccn(C)c1.O=S(=O)([N-]S(=O)(=O)C(F)(F)F)C(F)(F)F
Conditions	electrical conductivity [S/m]	viscosity [mPa·s]
x1 = 0.0175	0.453	–
x1 = 0.1758	–	33.7
x1 = 0.243	0.454	–
x1 = 0.3232	–	21.8
x1 = 0.3949	0.464	–
x1 = 0.4152	0.539	–
x1 = 0.4391	–	15.41
x1 = 0.4625	0.586	–
x1 = 0.4718	0.634	–
x1 = 0.5413	0.657	–
x1 = 0.5646	–	10.01
x1 = 0.6165	1.08	–
x1 = 0.6861	1.18	–
x1 = 0.7283	–	4.25
x1 = 0.7345	1.33	–
x1 = 0.7725	1.47	–
x1 = 0.7751	1.37	–
x1 = 0.776	1.47	–
x1 = 0.8389	1.46	–
x1 = 0.9008	1.21	–
x1 = 0.9319	0.95	–
x1 = 0.9506	0.739	–
x1 = 0.9696	0.46	–
x1 = 1	–	0.433
x2 = 0.0163	0.242	–
x2 = 0.0187	0.287	–

CC(C)(C)O + CCCC[n+]1ccn(C)c1.O=S(=O)([N-]S(=O)(=O)C(F)(F)F)C(F)(F)F
Conditions	electrical conductivity [S/m]	viscosity [mPa·s]
x1 = 0.2367	–	35.8
x1 = 0.3616	0.485	–
x1 = 0.401	0.488	–
x1 = 0.4577	0.497	–
x1 = 0.4791	0.5	–
x1 = 0.5125	0.503	–
x1 = 0.5277	–	20.8
x1 = 0.538	0.507	–
x1 = 0.5851	0.505	–
x1 = 0.7215	0.476	–
x1 = 0.785	0.377	–
x1 = 1	–	3.41

CCCC[n+]1ccn(C)c1.O=S(=O)([N-]S(=O)(=O)C(F)(F)F)C(F)(F)F + CC#N
Conditions	electrical conductivity [S/m]	viscosity [mPa·s]
x2 = 0.1027	0.514	–
x2 = 0.1028	–	39.6
x2 = 0.1514	0.567	–
x2 = 0.2513	0.72	–
x2 = 0.3638	–	17.8
x2 = 0.4169	1.08	–
x2 = 0.5016	1.37	–
x2 = 0.5238	–	9.4
x2 = 0.8396	3.67	–
x2 = 0.9485	4.03	–
x2 = 0.9667	3.41	–
x2 = 0.9794	2.69	–

CCCCO + CCCC[n+]1ccn(C)c1.O=S(=O)([N-]S(=O)(=O)C(F)(F)F)C(F)(F)F
Conditions	viscosity [mPa·s]
x1 = 1	2.6
